Data reported in patent publication US20160324795A1, “SILIBININ NANOPARTICLE AND A METHOD OF TREATING HEPATITIS C THEREOF” (Kaohsiung Medical University, priority 2014, published 2016).

Legend:
hepatitis C virus = test: HCVcc infectivity in Huh-7 cells infected by hepatitis C virus (luminescence); type: cell-based
Method: Huh-7 cells are infected by hepatitis C virus for 3 hours. After infection, surplus hepatitis C virus are washed, followed by adding a medium with 10% fetal bovine serum (FBS) and the treatment shown in TABLE 5 for 72 hours. The resulting media is collected and the luminescence level is analyzed to evaluate HCVcc infectivity. Specifically, group F2 is treated with dimethyl sulfoxide (DMSO), group F3 is treated with interferon-α (IFN-α), a conventional medication for treating hepatitis C, group F4 is treated with PVP, group F5 is treated with the conventional silibinin dissolved in DMSO, group F6 is treated with the conventional silibinin dissolved in water, and group F7 is treated with the silibinin nanoparticle of the invention dissolved in water.

[1] = Solubility in solutions mimicking blood (pH 7.4) and stomach (pH 1.2); type: physicochemical; conditions: pH 7.4, after 120 minutes
Excerpt: A solution with pH 7.4 mimics the environment of the blood and a solution with pH 1.2 mimics the environment of the stomach.
That is, compared with the conventional silibinin, the silibinin nanoparticle of the invention has improved blood solubility.

[2] = system: Sprague-Dawley (SD) male rats; test: Safety test in SD rats, administration via gastrostomy for 15 days; conditions: rat, in vivo
Method: (§1) Sprague-Dawley (SD) male rats (6 week-old) purchased from BioLASCO Taiwan Co., Ltd. are used in trials (D) and (E). The SD rats are housed on a 12-hours light and 12-hours dark cycle in an animal room kept at a constant temperature of 25±1° C. and constant humidity of 55±5%. The SD rats are housed for several days before being administered the silibinin nanoparticle of the invention via gastrostomy in a dosage shown in TABLE 3.
With reference to FIG. 6B, after being administered the silibinin nanoparticle of the invention for 15 days, all of the SD rats of groups D0 to D2 show a similar trend of increasing body weights.

[3] = Serum silibinin concentration in SD rats by HPLC; type: in vivo, rat
Method: as §1
After administration for 5, 15, 30, 60, 120, 360, 720, and 1440 minutes, 0.5 mL of blood samples are collected. The blood samples stand at room temperature for coagulation, followed by centrifugation to obtain serum. High-performance liquid chromatography (HPLC) is performed to analyze serum silibinin concentration.

[4] = Tissue silibinin concentration in SD rats 24 hours after administration by HPLC; type: in vivo, rat
Method: as §1
Furthermore, after being administered silibinin or silibinin nanoparticle for 24 hours, the SD rats of groups E1 and E2 are dissected and organs of heart, liver, spleen, lung, and kidney are collected. The collected organs are homogenized by a saline buffer, followed by extraction of silibinin with acetonitrile. The extracted silibinin is analyzed by HPLC.

[5] = 100 mg/kg silibinin (nanoparticle 200 mg/kg with 100 mg of silibinin)

Compound | HCVcc infectivity (hepatitis C virus; 72 hours treatment) [log10 RLU] | dissolution in solution mimicking the environment of the blood [1] | safe dosage (as silibinin content) [2] [mg/kg body weight per day] | highest level of serum silibinin concentration [3, 5] [ng/mL] | time to highest level of serum silibinin concentration [3, 5] [min] | concentration at 1440 minutes ([3]; male, Sprague-Dawley, rat, serum, 100 mg/kg body weight/day, 1440 minutes after administration) [µg/mL] | tissue distribution of silibinin (heart, liver, spleen, lung, kidney) [4] | HCVcc infectivity (hepatitis C virus; 72 hours, dissolved in DMSO) [log10 RLU]
IFN-α | 4.2 |  |  |  |  |  |  | 
COc1cc(C2Oc3cc(C4Oc5cc(O)cc(O)c5C(=O)C4O)ccc3OC2CO)ccc1O (centres unmarked) [silibinin, 3,5,7-trihydroxy-2-[3-(4-hydroxy-3-methoxyphenyl)-2-(hydroxymethyl)-2,3-dihydro-1,4-benzodioxin-6-yl]-2,3-dihydrochromen-4-one] |  | cannot dissolve | 5 | 170 | 15 | 0 | silibinin only exists in the lung | 4.9
